Data reported in patent US20230265116A1, “DEGRADATION OF (EGFR) BY CONJUGATION OF EGFR INHIBITORS WITH E3 LIGASE LIGAND AND METHODS OF USE” (BEIGENE, LTD., priority 2020, published 2023).
Each block holds one compound with its values, some of them ahead of it.

Legend:
EGFR (HCC827 cells) = biological target: T1, EGFR (HCC827 cells) (Homo sapiens, UniProt P00533, DEL746-750); test: EGFR degradation HTRF assay, HCC827 cells; assay type: cell-based; settings: HCC827, 16h treatment; for Dmax: maximum percentage of degradation
T1 construct: endogenous in cells; host or cells: HCC827
Procedure: (§1) BaF3 WT(wild type), BaF3-LTC(L858R/T790M/C797S) and BaF3-DTC(Del19/T790M/C797S) cells are treated with compounds diluted in 0.2% DMSO cell culture medium and incubate for 16h, 37° C., 5% CO2, H1975-#36, H1975-#28, H1975-#23 and HCC827 cells are treated with compounds diluted in 0.2% DMSO cell culture medium on day 2, incubate for 16h, 37° C., 5% CO2.the final concentriation of compounds in all assay is start with 10 uM, 5-fold dilution, total 8 doses were included.
(§2) After 16h treatment, add HTRF lysis buffer to each well; seal the plate and incubate 1 hour at room temperature on a plate shaker; Once the cells are lysed, 16 μL of cell lysate are transferred to a PE 384-well HTRF detection plate; 4 μL of pre-mixed HTRF antibodies are added to each well; Cover the plate with a plate sealer, spin 1000 rpm for 1 min, Incubate overnight at room temperature; Read on BMG PheraStar with HTRF protocol (337 nm-665 nm-620 nm).
(§3) The inhibition (degradation) percentage of the compound was calculated by the following equation: Inhibition percentage of Compound=100-100×(Signal-low control)/(High control-low control), wherein signal=each test compound group
(§4) High control=Cell group with added DMSO and without compound, indicating microplate readings without EGFR degradation;
(§5) Dmax is the maximum percentage of inhibition (degradation).
(§6) The IC50 (DC50) value of a compound can be obtained by fitting the following equation
(§7) Y=Bottom+(TOP−Bottom)/(1+((IC50/X)^hillslope))
(§8) Wherein, X and Y are known values, and IC50, Hillslope, Top and Bottom are the parameters obtained by fitting with software. Y is the inhibition percentage (calculated from the equation), X is the concentration of the compound; IC50 is the concentration of the compound when the 50% inhibition is reached. The smaller the IC50 value is, the stronger the inhibitory ability of the compound is. Vice versa, the higher the IC50 value is, the weaker the inhibitory ability of the compound is; Hillslope represents the slope of the fitted curve, generally around 1*; Bottom represents the minimum value of the curve obtained by data fitting, which is generally 0%±20%; Top represents the maximum value of the curve obtained by data fitting, which is generally 100%±20%. The experimental data were fitted by calculating and analyzing with Dotmatics data analysis software.

[1] = biological target: T2, EGFR L858R/T790M (H1975-clone #36, homozygous) (Homo sapiens, UniProt P00533, L858R/T790M); test: EGFR degradation HTRF assay, H1975-clone #36 cells; assay type: cell-based; settings: H1975 #36, 16h treatment; for Dmax: NCI-H1975, maximum percentage of degradation
T2 construct: designed to specifically target WT EGFR but preserve the L858R/T790M copy; host or cells: H1975-clone #36
Procedure: H1975-clone #36(L858R/T790M). H1975 cell heterozygously (from ATCC) contains alleles of WT and L858R/T790M EGFR. H1975-clone #36(L858R/T790M) was generated by gene knockout, in which the EGFR targeting sgRNA was designed to specifically target WT EGFR but preserve the L858R/T790M copy. Followed by the gene knockout, the edited H1975 cells were seeded in 96 well plates at the concentration of 1 cell/well, cultured for about 2 weeks to allow single clones formation. The formed clones were screened by DNA sequencing for the desired edition. H1975-clone #36 was confirmed as a homozygous L858R/T790M EGFR clone.
as §1, §2, §3, §4, §5, §6, §7, §8

T1 sequence (P00533 with tags, fused parts or gaps DEL746-750): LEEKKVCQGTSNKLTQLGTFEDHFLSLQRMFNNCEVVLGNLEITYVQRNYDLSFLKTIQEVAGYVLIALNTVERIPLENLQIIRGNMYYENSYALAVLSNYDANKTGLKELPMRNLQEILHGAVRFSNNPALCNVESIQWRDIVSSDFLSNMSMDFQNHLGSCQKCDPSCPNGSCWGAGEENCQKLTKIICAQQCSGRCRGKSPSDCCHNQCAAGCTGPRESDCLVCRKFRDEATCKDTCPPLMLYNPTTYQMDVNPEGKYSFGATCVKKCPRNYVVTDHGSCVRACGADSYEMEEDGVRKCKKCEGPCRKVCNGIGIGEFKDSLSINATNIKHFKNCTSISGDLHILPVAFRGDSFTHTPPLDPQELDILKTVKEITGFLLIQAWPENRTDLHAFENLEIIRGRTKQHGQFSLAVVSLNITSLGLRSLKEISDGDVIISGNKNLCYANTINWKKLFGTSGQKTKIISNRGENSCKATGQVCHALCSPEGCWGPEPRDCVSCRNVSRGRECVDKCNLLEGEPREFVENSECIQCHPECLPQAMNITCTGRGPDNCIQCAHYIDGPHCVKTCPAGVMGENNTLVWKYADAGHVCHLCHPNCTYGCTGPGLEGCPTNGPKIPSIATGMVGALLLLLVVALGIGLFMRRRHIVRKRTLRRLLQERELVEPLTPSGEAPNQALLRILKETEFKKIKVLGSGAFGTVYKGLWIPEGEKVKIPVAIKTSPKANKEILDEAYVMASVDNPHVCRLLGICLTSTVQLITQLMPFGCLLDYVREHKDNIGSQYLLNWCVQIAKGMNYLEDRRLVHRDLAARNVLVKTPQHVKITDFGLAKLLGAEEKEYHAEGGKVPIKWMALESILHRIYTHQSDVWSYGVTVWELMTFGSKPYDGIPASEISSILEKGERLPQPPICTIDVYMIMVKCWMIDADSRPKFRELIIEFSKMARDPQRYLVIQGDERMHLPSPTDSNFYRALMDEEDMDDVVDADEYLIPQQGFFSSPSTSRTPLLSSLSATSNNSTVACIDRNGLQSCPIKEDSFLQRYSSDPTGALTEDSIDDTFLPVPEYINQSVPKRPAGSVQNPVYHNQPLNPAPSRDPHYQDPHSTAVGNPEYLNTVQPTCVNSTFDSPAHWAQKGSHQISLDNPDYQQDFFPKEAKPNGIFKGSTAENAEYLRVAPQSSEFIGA
T2 sequence (P00533 25-1210 T790M/L858R): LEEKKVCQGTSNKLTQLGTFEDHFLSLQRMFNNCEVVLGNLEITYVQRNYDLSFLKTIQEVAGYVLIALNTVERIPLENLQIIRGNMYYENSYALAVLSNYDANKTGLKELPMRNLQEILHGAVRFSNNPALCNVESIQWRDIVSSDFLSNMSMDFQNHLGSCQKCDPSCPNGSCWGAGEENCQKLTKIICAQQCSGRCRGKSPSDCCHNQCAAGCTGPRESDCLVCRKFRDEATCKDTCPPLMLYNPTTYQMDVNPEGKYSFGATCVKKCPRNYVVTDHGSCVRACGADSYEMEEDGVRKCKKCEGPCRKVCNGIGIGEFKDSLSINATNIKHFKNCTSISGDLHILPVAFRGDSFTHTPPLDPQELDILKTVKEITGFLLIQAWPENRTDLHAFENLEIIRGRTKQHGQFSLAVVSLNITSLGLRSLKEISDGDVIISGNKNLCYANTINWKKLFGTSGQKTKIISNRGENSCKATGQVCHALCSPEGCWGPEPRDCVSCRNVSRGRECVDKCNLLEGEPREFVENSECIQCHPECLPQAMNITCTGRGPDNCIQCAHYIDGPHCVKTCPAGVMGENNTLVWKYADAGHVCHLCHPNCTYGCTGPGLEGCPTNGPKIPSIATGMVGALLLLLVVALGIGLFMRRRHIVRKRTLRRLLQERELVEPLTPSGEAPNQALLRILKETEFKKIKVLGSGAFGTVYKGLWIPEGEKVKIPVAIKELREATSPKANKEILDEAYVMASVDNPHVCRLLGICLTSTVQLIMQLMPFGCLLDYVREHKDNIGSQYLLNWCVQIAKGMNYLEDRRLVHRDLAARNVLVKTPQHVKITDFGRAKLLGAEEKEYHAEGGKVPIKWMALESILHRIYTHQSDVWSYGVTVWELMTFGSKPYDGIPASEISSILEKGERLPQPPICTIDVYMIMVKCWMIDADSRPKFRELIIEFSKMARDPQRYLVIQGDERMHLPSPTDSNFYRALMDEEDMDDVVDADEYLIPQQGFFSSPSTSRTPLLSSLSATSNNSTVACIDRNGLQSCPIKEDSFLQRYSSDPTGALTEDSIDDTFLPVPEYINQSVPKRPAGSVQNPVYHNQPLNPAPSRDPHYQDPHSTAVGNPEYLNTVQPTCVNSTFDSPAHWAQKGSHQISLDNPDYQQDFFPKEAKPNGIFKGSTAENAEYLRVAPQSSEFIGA

SMILES: CCc1cc(Nc2ncc(Br)c(Nc3ccc4nccnc4c3P(C)(C)=O)n2)c(OC)cc1N1CCC(N2CCN(C(=O)CCC3CN(c4ccc5c(c4)C(=O)N(C4CCC(=O)NC4=O)C5=O)C3)CC2)CC1 (stereo not shown) [Example 57, 5-(3-(3-(4-(1-(4-((5-bromo-4-((5-(dimethylphosphoryl)quinoxalin-6-yl)amino)pyrimidin-2-yl)amino)-2-ethyl-5-methoxyphenyl)piperidin-4-yl)piperazin-1-yl)-3-oxopropyl)azetidin-1-yl)-2-(2,6-dioxopiperidin-3-yl)isoindoline-1,3-dione]
- DC50 (EGFR (HCC827 cells)): 4.8 nM
- Dmax (EGFR (HCC827 cells)): 76.1%
- DC50 [1]: 5.31 nM
- Dmax [1]: 77.4%

SMILES: CCc1cc(Nc2ncc(Br)c(Nc3ccc4nccnc4c3P(C)(C)=O)n2)c(OC)cc1N1CCC(N2CCN(CC3CN(c4ccc5c(c4)C(=O)N(C4CCC(=O)NC4=O)C5=O)C3)CC2)CC1 (stereo not shown) [Example 59, 5-(3-((4-(1-(4-((5-bromo-4-((5-(dimethylphosphoryl)quinoxalin-6-yl)amino)pyrimidin-2-yl)amino)-2-ethyl-5-methoxyphenyl)piperidin-4-yl)piperazin-1-yl)methyl)azetidin-1-yl)-2-(2,6-dioxopiperidin-3-yl)isoindoline-1,3-dione]
- DC50 (EGFR (HCC827 cells)): 4.68 nM
- Dmax (EGFR (HCC827 cells)): 85.2%
- DC50 [1]: 1.62 nM
- Dmax [1]: 82.5%

SMILES: COc1cc(N2CCN(CC3CCN(c4ccc(N5CCC(=O)NC5=O)c(F)c4)CC3)CC2)c(C)cc1Nc1ncc(Br)c(Nc2ccc3nccnc3c2P(C)(C)=O)n1 [Example 96, 1-(4-(4-((4-(4-((5-bromo-4-((5-(dimethylphosphoryl)quinoxalin-6-yl)amino)pyrimidin-2-yl)amino)-5-methoxy-2-methylphenyl)piperazin-1-yl)methyl)piperidin-1-yl)-2-fluorophenyl)dihydropyrimidine-2,4(1H,3H)-dione]
- DC50 (EGFR (HCC827 cells)): 151 nM
- Dmax (EGFR (HCC827 cells)): 67%
- DC50 [1]: > 10000 nM
- Dmax [1]: 7.3%

SMILES: COc1cc(N2CCC(N(C)CC3CCN(c4ccc(N5CCC(=O)NC5=O)cc4)CC3)CC2)c(C)cc1Nc1ncc(Br)c(Nc2ccc3nccnc3c2P(C)(C)=O)n1 [Example 79, 1-(4-(4-(((1-(4-((5-bromo-4-((5-(dimethylphosphoryl)quinoxalin-6-yl)amino)pyrimidin-2-yl)amino)-5-methoxy-2-methylphenyl)piperidin-4-yl)(methyl)amino)methyl)piperidin-1-yl)phenyl)dihydropyrimidine-2,4(1H,3H)-dione]
- DC50 (EGFR (HCC827 cells)): 17.5 nM
- Dmax (EGFR (HCC827 cells)): 72.1%
- DC50 [1]: > 10000 nM
- Dmax [1]: 18.6%

SMILES: CCc1cc(Nc2ncc(Br)c(Nc3ccc4nccnc4c3P(C)(C)=O)n2)c(OC)cc1N1CCC(N2CCN(CCC3CN(c4ccc5c(c4)C(=O)N(C4CCC(=O)NC4=O)C5=O)C3)CC2)CC1 (stereo not shown) [Example 58, 5-(3-(2-(4-(1-(4-((5-bromo-4-((5-(dimethylphosphoryl)quinoxalin-6-yl)amino)pyrimidin-2-yl)amino)-2-ethyl-5-methoxyphenyl)piperidin-4-yl)piperazin-1-yl)ethyl)azetidin-1-yl)-2-(2,6-dioxopiperidin-3-yl)isoindoline-1,3-dione]
- DC50 (EGFR (HCC827 cells)): 5.45 nM
- Dmax (EGFR (HCC827 cells)): 78.5%
- DC50 [1]: 3.9 nM
- Dmax [1]: 88.5%

SMILES: COc1cc(N2CCC(N3CCN(CCc4ccc(CN5CCC(=O)NC5=O)cc4)CC3)CC2)ccc1Nc1ncc(Cl)c(Nc2ccccc2P(C)(C)=O)n1 [Example 111, 1-(4-(2-(4-(1-(4-((5-chloro-4-((2-(dimethylphosphoryl)phenyl)amino)pyrimidin-2-yl)amino)-3-methoxyphenyl)piperidin-4-yl)piperazin-1-yl)ethyl)benzyl)dihydropyrimidine-2,4(1H,3H)-dione]
- DC50 (EGFR (HCC827 cells)): 112 nM
- Dmax (EGFR (HCC827 cells)): 81.1%

SMILES: COc1cc(N2CCC(N(C)CCOc3ccc(C4CCC(=O)NC4=O)cc3)CC2)c(C)cc1Nc1ncc(Br)c(Nc2ccc3nccnc3c2P(C)(C)=O)n1 (stereo not shown) [Example 76, 3-(4-(2-((1-(4-((5-bromo-4-((5-(dimethylphosphoryl)quinoxalin-6-yl)amino)pyrimidin-2-yl)amino)-5-methoxy-2-methylphenyl)piperidin-4-yl)(methyl)amino)ethoxy)phenyl)piperidine-2,6-dione]
- DC50 (EGFR (HCC827 cells)): 30.5 nM
- Dmax (EGFR (HCC827 cells)): 77.1%

SMILES: COc1cc(N2CCN(CCOc3ccc(C4CCC(=O)NC4=O)cc3)CC2)c(C)cc1Nc1ncc(Br)c(Nc2ccc3nccnc3c2P(C)(C)=O)n1 (stereo not shown) [Example 91, 3-(4-(2-(4-(4-((5-bromo-4-((5-(dimethylphosphoryl)quinoxalin-6-yl)amino)pyrimidin-2-yl)amino)-5-methoxy-2-methylphenyl)piperazin-1-yl)ethoxy)phenyl)piperidine-2,6-dione]
- DC50 (EGFR (HCC827 cells)): 90.4 nM
- Dmax (EGFR (HCC827 cells)): 73.5%

SMILES: COc1cc(N2CCN(CCc3ccc(OC4CCC(=O)NC4=O)cc3)CC2)c(C)cc1Nc1ncc(Br)c(Nc2ccc3nccnc3c2P(C)(C)=O)n1 (stereo not shown) [Example 93, 3-(4-(2-(4-(4-((5-bromo-4-((5-(dimethylphosphoryl)quinoxalin-6-yl)amino)pyrimidin-2-yl)amino)-5-methoxy-2-methylphenyl)piperazin-1-yl)ethyl)phenoxy)piperidine-2,6-dione]
- DC50 (EGFR (HCC827 cells)): 130 nM
- Dmax (EGFR (HCC827 cells)): 72.4%

Results, then the compound that gave them:

- DC50 (EGFR (HCC827 cells)): 103 nM
- Dmax (EGFR (HCC827 cells)): 83.4%
- DC50 [1]: 641 nM
- Dmax [1]: 74.7%
SMILES: COc1cc(N2CCN(CC3CCN(c4ccc(N5CCC(=O)NC5=O)cc4)CC3)CC2)ccc1Nc1ncc(Cl)c(Nc2ccccc2P(C)(C)=O)n1 [Example 115, 1-(4-(4-((4-(4-((5-chloro-4-((2-(dimethylphosphoryl)phenyl)amino)pyrimidin-2-yl)amino)-3-methoxyphenyl)piperazin-1-yl)methyl)piperidin-1-yl)phenyl)dihydropyrimidine-2,4(1H,3H)-dione]

- DC50 (EGFR (HCC827 cells)): 12.8 nM
- Dmax (EGFR (HCC827 cells)): 85.3%
- DC50 [1]: 9.02 nM
- Dmax [1]: 83.9%
SMILES: COc1cc(N2CCC(N3CCN(CCc4ccc(C5CCC(=O)NC5=O)cc4)CC3)CC2)ccc1Nc1ncc(Cl)c(Nc2ccccc2N(C)S(C)(=O)=O)n1 (stereo not shown) [Example 119, N-(2-((5-chloro-2-((4-(4-(4-(4-(2,6-dioxopiperidin-3-yl)phenethyl)piperazin-1-yl)piperidin-1-yl)-2-methoxyphenyl)amino)pyrimidin-4-yl)amino)phenyl)-N-methylmethane sulfonamide]

- DC50 (EGFR (HCC827 cells)): 8.56 nM
- Dmax (EGFR (HCC827 cells)): 88.9%
- DC50 [1]: 5.24 nM
- Dmax [1]: 73.3%
SMILES: COc1cc(N2CCC(N3CCN(CCc4ccc(NC5CCC(=O)NC5=O)cc4)CC3)CC2)ccc1Nc1ncc(Cl)c(Nc2ccccc2NS(C)(=O)=O)n1 (stereo not shown) [Example 140, N-(2-((5-chloro-2-((4-(4-(4-(4-((2,6-dioxopiperidin-3-yl)amino)phenethyl)piperazin-1-yl)piperidin-1-yl)-2-methoxyphenyl)amino)pyrimidin-4-yl)amino)phenyl)methanesulfonamide]

- DC50 (EGFR (HCC827 cells)): 15.1 nM
- Dmax (EGFR (HCC827 cells)): 82.2%
- DC50 [1]: 3.58 nM
- Dmax [1]: 87%
SMILES: COc1cc(N2CCC(N3CCN(CCc4ccc(C5CCC(=O)NC5=O)cc4)CC3)CC2)ccc1Nc1ncc(Cl)c(Nc2ccccc2NS(C)(=O)=O)n1 (stereo not shown) [Example 138, N-(2-((5-chloro-2-((4-(4-(4-(4-(2,6-dioxopiperidin-3-yl)phenethyl)piperazin-1-yl)piperidin-1-yl)-2-methoxyphenyl)amino)pyrimidin-4-yl)amino)phenyl)methanesulfonamide]

- DC50 (EGFR (HCC827 cells)): 38 nM
- Dmax (EGFR (HCC827 cells)): 77.6%
SMILES: CN(c1ccccc1Nc1nc(Nc2ccc(N3CC4(CN(CCc5ccc(C6CCC(=O)NC6=O)cc5)C4)C3)c(F)c2)ncc1Cl)S(C)(=O)=O (stereo not shown) [Example 134, N-(2-((5-chloro-2-((4-(6-(4-(2,6-dioxopiperidin-3-yl)phenethyl)-2,6-diazaspiro[3.3]heptan-2-yl)-3-fluorophenyl)amino)pyrimidin-4-yl)amino)phenyl)-N-methylmethanesulfonamide]
